Measurements taken from US20100292137A1, “Antibiotics and Methods For Producing Them” (priority 2006, published 2010).
Converted amounts (≈) assume the structure as drawn. Starred links: 1 amine or outer side, 2 acyl side, 3 side chain; linkers in the order of their positions; H or OH if unused. Positions of bridges follow the written chain, without caps; N, C: chain ends. Non-standard residues stand in square brackets, D forms with d. Residues, ends and D or L forms follow the SMILES beside them. *: point of attachment. X1 = NC1=N[C@@H]([C@H](N[*:1])C(=O)[*:2])C[C@H](O)N1; ΔAla(Z-3-ureido) = NC(=O)N/C=C(\N)C(=O)O; β3hOrn = NCCC[C@H](N)CC(=O)*; Dap = NC[C@H](N)C(=O)O

Assays:
M. smegmatis [1] = test: microbe, parasite or virus in culture; assay type: cell-based, Mycobacterium smegmatis
[2] = system: 70S ribosome (30S, 50S and 70S particles); assay type: binding, Mycobacterium smegmatis
[3] = system: S. coelicolor M145 and derived mutants; assay type: cell-based, Streptomyces coelicolor
S. avermitilis MA4630 = assay type: cell-based, Streptomyces avermitilis
M. smegmatis [4] = details: tlyA mutant P2U; cited from earlier work
E. coli DH1 = test: microbe, parasite or virus in culture; assay type: cell-based; details: Escherichia coli, DH1, read-out: Minimal inhibitory concentrations
E. coli strain AS19 = test: Agar plate MIC on hyperpermeable E. coli AS19; details: Escherichia coli
Procedure: Escherichia coli strain DH1 was used for cloning and expressing recombinant tlyA, and was grown by standard techniques (Sambrook et al., 1989). The hyperpermeable E. coli strain AS19 (Sekiguchi and Iida, 1967) was additionally used to express tlyA.
Overnight cultures of E. coli DH1 and AS19 strains were diluted 10^5-fold and plated onto agar containing viomycin (US Pharmacopeia), capreomycin, kanamycin or rifampicin (Sigma) with concentrations increasing in two-fold steps. The agar plates were incubated at 37° C.; and after 22 h, MICs were scored as the lowest concentration at which no growth was observed.

## NCCC[C@H](N)CC(=O)N[C@H]1CNC(=O)[C@H]([C@H]2C[C@H](O)NC(N)=N2)NC(=O)/C(=C/NC(N)=O)NC(=O)[C@H](CO)NC(=O)[C@H](CO)NC1=O [viomycin] (β3hOrn-[Dap]SS[ΔAla(Z-3-ureido)][X1]; lactam 1-C)
M. smegmatis [1]; Mycolicibacterium smegmatis
  MIC: 20 to 40 µg/mL (≈ 29.2 to 58.3 µM)
[2]
  binding interactions with the ribosome (footprints): occur only when the ribosomal subunits are associated into 70S couples

## capreomycin
M. smegmatis [1]
  MIC, minimal inhibitory concentration of capreomycin: <10 µg/mL
[3]
  MIC value: 1 to 5 µg/mL
  capreomycin concentration above which the strain is unable to grow: 5 µg/mL
  capreomycin concentration at which the strain grew very well: 100 µg/mL
  capreomycin concentration at which the strain still grows: 100 µg/mL
  capreomycin sensitivity after complementation: regained capreomycin sensitivity
  resistance relative to parent M145: more than 100 fold
S. avermitilis MA4630
  MIC value: 1 to 5 µg/mL
[2]
  binding interactions with the ribosome (footprints): occur only when the ribosomal subunits are associated into 70S couples

## NCC[C@H](O)C(=O)N[C@@H]1C[C@H](N)[C@@H](O[C@H]2O[C@H](CN)[C@@H](O)[C@H](O)[C@H]2O)[C@H](O)[C@H]1O[C@H]1O[C@H](CO)[C@@H](O)[C@H](N)[C@H]1O [amikacin]
M. smegmatis [4]
  susceptibility: susceptible

## CO[C@H]1/C=C/O[C@@]2(C)Oc3c(C)c(O)c4c(O)c(c(/C=N/N5CCN(C)CC5)c(O)c4c3C2=O)NC(=O)/C(C)=C\C=C\[C@H](C)[C@H](O)[C@@H](C)[C@@H](O)[C@@H](C)[C@H](OC(C)=O)[C@@H]1C [rifampicin]
E. coli DH1
  MIC: 4 µg/mL (≈ 4.86 µM)
E. coli strain AS19
  MIC: 0.1 µg/mL (≈ 0.122 µM)

## NC[C@H]1O[C@H](O[C@H]2[C@H](O)[C@@H](O[C@H]3O[C@H](CO)[C@@H](O)[C@H](N)[C@H]3O)[C@H](N)C[C@@H]2N)[C@H](O)[C@@H](O)[C@@H]1O [kanamycin]
E. coli DH1
  MIC: 4 µg/mL (≈ 8.26 µM)
